Legend:
Assay in all cases: competitive native PAGE, 2a staining
Conditions in all cases: 100 mM KCl; TBE; 100 μM competitor with 20 μM c-MYC Pu22; 5 μM 2a
[1] = tested on: GC-rich ds-DNA (DNA, duplex) TGAGGGTGGGTAGGGTGGGTAA/TTACCCACCCTACCCACCCTCA
[2] = tested on: TBA (DNA, G4) GGTTGGTGTGGTTGG
[3] = tested on: s.c. ds-DNA (DNA, duplex) CAATCGGATCGAATTCGATCCGATTG

Measured: binding

CCN(CC)c1ccc2cc(C(=N)N)c(=O)oc2c1
no: all assays above

Source: publication PMC8397291 (2021)
